Reference: article PMC12207590, “Substrate Specificity of the Organic Cation Transporters MATE1 and MATE2K and Functional Overlap with OCT1 and OCT2” (Journal of Medicinal Chemistry, 2025)
Read-outs that look alike come from different tables or passages of the source.

How the values were obtained:
[1] = system: hCMEC; experiment: TS MDAI hCMEC (Table S2); assay type: cell-based, human; design: scale not given here
[2] = target: T1, MATE2K (Homo sapiens, UniProt Q86VL8); experiment: Concentration-dependent uptake (Michaelis-Menten) via MATE2K in HEK293 cells; conditions: HEK293, 1 min, net uptake; for Km: read-out: MATE2K KM
[3] = target: T2, MATE1 (Homo sapiens, UniProt Q96FL8); experiment: Concentration-dependent uptake (Michaelis-Menten) via MATE1 in HEK293 cells; conditions: for Km: read-out: MATE1 KM
T2 sequence (Q96FL8 1-570): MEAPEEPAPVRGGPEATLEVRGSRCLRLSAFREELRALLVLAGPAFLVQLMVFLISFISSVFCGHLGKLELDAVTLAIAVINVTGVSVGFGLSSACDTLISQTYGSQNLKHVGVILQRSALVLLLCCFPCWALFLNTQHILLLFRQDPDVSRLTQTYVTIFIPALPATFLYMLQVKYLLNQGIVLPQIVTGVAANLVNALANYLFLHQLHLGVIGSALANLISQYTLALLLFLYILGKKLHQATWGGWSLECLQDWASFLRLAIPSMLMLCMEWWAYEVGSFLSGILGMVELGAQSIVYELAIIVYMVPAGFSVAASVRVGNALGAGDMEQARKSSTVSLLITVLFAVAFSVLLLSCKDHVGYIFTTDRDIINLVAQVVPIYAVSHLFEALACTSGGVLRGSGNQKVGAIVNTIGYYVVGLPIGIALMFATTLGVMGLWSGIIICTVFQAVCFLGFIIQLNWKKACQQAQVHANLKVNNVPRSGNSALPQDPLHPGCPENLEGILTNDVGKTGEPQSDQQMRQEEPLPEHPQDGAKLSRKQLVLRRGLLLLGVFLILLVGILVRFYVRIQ

[4] = system: hCMEC; experiment: TS DPH hCMEC (Table S2); assay type: cell-based, human; design: scale not given here
[5] = system: MATE1, MATE2K, OCT1, OCT2; experiment: Substrate specificity and overlap among the four transporters (ratio cutoff 2); assay type: cell-based, human
[6] = target: T1, MATE2K; experiment: Uptake ratio in MATE2K-overexpressing HEK293 cells vs empty vector (2.5 μM, 1 min, HPLC-MS/MS); assay type: cell-based; conditions: for MATE2K ratio in this study: Table S1
[7] = target: T2, MATE1; experiment: Uptake ratio in MATE1-overexpressing HEK293 cells vs empty vector (2.5 μM, 1 min, HPLC-MS/MS); assay type: cell-based; conditions: for MATE1 ratio in this study: Table S1
[8] = fold uptake over empty vector, 2.5 μM, 1 min
[9] = uptake ratio MATE2K-overexpressing vs empty-vector HEK293 cells, 2.5 μM, 1 min, mean
[10] = uptake ratio MATE1-overexpressing vs empty-vector HEK293 cells, 2.5 μM, 1 min, mean

T1 sequence (Q86VL8 1-566 isoform Q86VL8-3): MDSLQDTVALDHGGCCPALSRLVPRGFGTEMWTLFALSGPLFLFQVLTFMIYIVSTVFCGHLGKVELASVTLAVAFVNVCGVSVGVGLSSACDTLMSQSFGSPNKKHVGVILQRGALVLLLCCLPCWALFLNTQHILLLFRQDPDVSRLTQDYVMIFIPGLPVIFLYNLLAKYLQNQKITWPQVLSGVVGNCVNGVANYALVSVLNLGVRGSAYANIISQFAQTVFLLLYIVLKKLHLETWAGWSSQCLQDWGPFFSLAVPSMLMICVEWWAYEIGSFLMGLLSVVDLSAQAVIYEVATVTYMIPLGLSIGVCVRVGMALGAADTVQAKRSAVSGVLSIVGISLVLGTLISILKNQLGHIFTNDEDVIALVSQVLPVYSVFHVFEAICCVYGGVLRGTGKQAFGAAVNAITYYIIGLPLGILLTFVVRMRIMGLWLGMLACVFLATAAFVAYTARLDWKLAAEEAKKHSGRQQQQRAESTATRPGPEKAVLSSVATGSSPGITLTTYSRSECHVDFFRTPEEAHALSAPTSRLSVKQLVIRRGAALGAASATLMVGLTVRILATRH

| Compound | MATE2K Vmax [2] | MATE1 Vmax ([3]; HEK293, 1 min, net uptake) | Substrate specificity among MATE1, MATE2K, OCT1, OCT2 ([5]; transport ratio cutoff of 2) | MATE2K ratio [6, 8] | MATE1 ratio [7, 8] | Km [2] [µM] | Km ([3]; HEK293, 1 min, net uptake) [µM] | also measured |
| --- | --- | --- | --- | --- | --- | --- | --- | --- |
| Cc1c(N)c(=O)n(-c2ccccc2)n1C [4-Aminoantipyrine] | linear | linear | – | – | – | – | – | TS MDAI hCMEC ([1]; Table S2): 1.01; TS DPH hCMEC ([4]; Table S2): 1.09 |
| CC(C)NCC(O)c1cc(O)cc(O)c1 (stereo not shown) [Orciprenaline] | – | – | All four transporters | 23.10 | 34.88 | – | – | – |
| COc1cc(C(O)CN)ccc1O (stereo not shown) [Normetanephrine] | – | – | OCT1 only | 0.82 | 1.80 | – | – | – |
| [H]/N=C(/N)N/C(=N/[H])NCCc1ccccc1 [Phenformin] | 1361 pmol × mg protein^–1 × min^–1 | 8451 pmol × mg protein^–1 × min^–1 | – | 3.01 | 19.54 | 73.1 | 101 | – |
| COc1ccc(OC)c(C(O)CNC(=O)CN)c1 (stereo not shown) [Midodrine] | – | – | MATE1 only | 1.43 | 4.53 | – | – | TS MDAI hCMEC ([1]; Table S2): 1.02; TS DPH hCMEC ([4]; Table S2): 1.05 |
| CCOC(=O)C1(c2ccccc2)CCN(C)CC1 [Pethidine] | – | – | MATE2K only | – | – | – | – | – |
| Nc1ccncc1 [Fampridine (4-aminopyridine), 4-aminopyridine] | – | – | OCT2 only | – | – | – | – | – |
| CC(CCc1ccc(O)cc1)NCCc1ccc(O)c(O)c1 (stereo not shown) [Dobutamine] | 493 pmol × mg protein^–1 × min^–1 | 2586 pmol × mg protein^–1 × min^–1 | – | 2.77 | 17.41 | 86.4 | 88.6 | TS MDAI hCMEC ([1]; Table S2): 0.99; TS DPH hCMEC ([4]; Table S2): 0.67 |
| C[C@H](N)[C@@H](O)c1ccccc1 [Cathine] | – | – | OCT2 only | – | – | – | – | TS DPH hCMEC [4]: 0.35 |
| CC(=O)OC(C)C[N+](C)(C)C (stereo not shown) [Methacholine] | 1240 pmol × mg protein^–1 × min^–1 | 17,843 pmol × mg protein^–1 × min^–1 | – | 2.57 | 21.58 | 1400 | 1990 | – |
| CNC[C@H](O)c1cccc(O)c1 [Phenylephrine] | 776 pmol × mg protein^–1 × min^–1 | 11,611 pmol × mg protein^–1 × min^–1 | – | 1.75 | 13.78 | 434 | 474 | TS MDAI hCMEC ([1]; Table S2): 1.03; TS DPH hCMEC ([4]; Table S2): 0.76 |
| CC[C@@]1(O)C(=O)OCc2c1cc1n(c2=O)Cc2cc3c(CN(C)C)c(O)ccc3nc2-1 [Topotecan] | – | – | MATE1 only | – | – | – | – | MATE2K ratio in this study ([6]; 2.5 μM, 1 min): 1.61; MATE2 [6, 9]: 1.61; MATE1 ratio in this study ([7]; 2.5 μM, 1 min): 2.53; MATE1 [7, 10]: 2.53 |
| COC(=O)C(c1ccccc1)C1CCCCN1 (stereo not shown) [Methylphenidate] | – | – | OCT2 only | – | – | – | – | TS MDAI hCMEC [1]: 0.24; TS DPH hCMEC [4]: 0.33 |
| NCCc1ccc(O)cc1 [Tyramine] | 2868 pmol × mg protein^–1 × min^–1 | 5948 pmol × mg protein^–1 × min^–1 | – | – | – | 1060 | 136 | MATE2K ratio in this study ([6]; 2.5 μM, 1 min): 1.39; MATE2 [6, 9]: 1.39; MATE1 ratio in this study ([7]; 2.5 μM, 1 min): 10.06; MATE1 [7, 10]: 10.06 |
| CC[N+](CC)(CC)CC(=O)Nc1c(C)cccc1C [N-Ethyl-lidocaine] | – | – | All four transporters | 14.68 | 36.39 | – | – | – |
| COc1cc(Cc2cnc(N)nc2N)cc(OC)c1OC [trimethoprim] | – | – | OCT1 only | – | – | – | – | MATE2 [6, 9]: 1.23; MATE1 [7, 10]: 1.52 |
| COCCn1c2c([n+](Cc3cnccn3)c1C)C(=O)c1ccccc1C2=O [Sepantronium] | 78.5 pmol × mg protein^–1 × min^–1 | – | – | – | – | 8.54 | 80.9 | TS MDAI hCMEC [1]: 0.99; MATE1 Vmax [3]: 304 pmol × mg protein^–1 × min^–1; TS DPH hCMEC [4]: 1.01; MATE2 [6]: 9.45; MATE2K ratio [6]: 9.45; MATE1 [7]: 6.15; MATE1 ratio [7]: 6.15 |
| NCCc1ccc(O)c(O)c1 [Dopamine] | 1219 pmol × mg protein^–1 × min^–1 | 10,148 pmol × mg protein^–1 × min^–1 | – | 1.97 | 39.94 | 961 | 530 | – |
| thyrotropin-releasing hormone | – | – | no substrates of the four transporters | – | – | – | – | – |
| Nc1nc(=O)n([C@@H]2CS[C@H](CO)O2)cc1F [Emtricitabine] | 2634 pmol × mg protein^–1 × min^–1 | 4523 pmol × mg protein^–1 × min^–1 | – | 2.88 | 3.22 | 873 | 992 | MATE2K ratio in this study ([6]; 2.5 μM, 1 min): 2.88; MATE1 ratio in this study ([7]; 2.5 μM, 1 min): 3.22 |
| COc1ccc2c3c1O[C@H]1C(=O)CC[C@@]4(O)[C@@H](C2)NCC[C@]314 [Noroxycodone] | – | – | OCT1 only | – | – | – | – | MATE2K ratio [6]: 1.13; MATE1 ratio [7]: 1.39 |
| N=C(N)c1ccc2cc(OC(=O)c3ccc(N=C(N)N)cc3)ccc2c1 [Nafamostat] | – | – | MATE1 only | – | – | – | – | MATE2K ratio [6]: 1.64; MATE1 ratio [7]: 5.45 |
| CNC[C@H](O)c1ccc(O)c(O)c1 [Epinephrine] | 2968 pmol × mg protein^–1 × min^–1 | 22,773 pmol × mg protein^–1 × min^–1 | – | – | – | 1510 | 1080 | – |
| CC1(C)N=C(N)N=C(N)N1c1ccc(Cl)cc1 [Cycloguanil] | – | – | All four transporters | 10.75 | 21.02 | – | – | MATE2K ratio in this study ([6]; 2.5 μM, 1 min): 10.75; MATE1 ratio in this study ([7]; 2.5 μM, 1 min): 21.02 |
| Cc1ncc(CO)c(CO)c1O [Pyridoxin] | 593 pmol × mg protein^–1 × min^–1 | 10,014 pmol × mg protein^–1 × min^–1 | – | 1.18 | 2.33 | 495 | 4230 | MATE2 [6, 9]: 1.18; MATE1 [7, 10]: 2.33 |
| CCCCCCN [Hexylamine] | – | – | OCT1 only | – | – | – | – | MATE2K ratio [6]: 1.08; MATE1 ratio [7]: 1.21 |
| C[C@H](CS)C(=O)N1CCC[C@H]1C(=O)O [Captopril] | – | – | – | – | – | – | – | Substrate specificity among MATE1, MATE2K, OCT1, OCT2 [5]: no substrates of the four transporters |
